Source: US20220073532A1, “INHIBITORS OF CGAS ACTIVITY AS THERAPEUTIC AGENTS” (BELLBROOK LABS, LLC, priority 2019, published 2022)
In brackets after ≈: the same amount, converted by molar mass. Read-outs that look alike come from different tables or passages of the source.

Columns and labels:
[1] = Mouse microsomal stability (NADPH); format: in vitro ADME; details: liver microsomes, read-out: Mouse MS Stability (NADPH) t1/2
Experimental: (§1) ADME/PK: Compounds are tested in Caco-2 and MDR1-MDCK permeability assays to provide a measure of intestinal absorption, blood-brain-permeability and efflux by P-glycoprotein (P-gp), a frequent obstacle to effective CNS delivery. CNS drugs are associated with high passive membrane permeability (Papp>1×10^−6 cm/sec) and have low efflux ratios (Papp(B-A)/Papp(A-B)<2.5). Metabolic stability is tested using mouse and human liver microsomes incubated with NADPH for CYP-dependent metabolism and with UDPGA for glucuronidation. Compounds are tested for pharmacokinetics and brain penetration in mice using oral, intravenous and intraperitoneal administration.

MDR1 (P-glycoprotein) = test: MDCK-MDR permeability; format: in vitro ADME, canine; details: dog, MDCK-MDR1
Experimental: as §1

[2] = tested on: MDCK-MDR (Madin-Darby Canine Kidney cells-Multi Drug Resistance pump); test: MDCK-MDR permeability; format: in vitro ADME
Experimental: as §1

Mouse cGAS = Mouse cGAS (Mus musculus, UniProt Q8C6L5); test: cGAS enzymatic assay with mouse cGAS; format: biochemical
Experimental: Biochemical and biophysical analysis: Potency and MOA studies, including Mn^2+ sensitivity, are performed using the cGAS enzymatic assay. Dose response experiments are used to determine IC50 values under basal conditions (5 mM MgCl2, 100 μM ATP/GTP), and with the addition of physiological levels of Mn (0.2 mM) using human and mouse cGAS. Ligand optimization is driven by potency with the human enzyme; potency with mouse cGAS informs selection of an appropriate disease model for efficacy studies. Competition with ATP and GTP is assessed by comparing basal IC50 values to those in the presence of saturating ATP or GTP, and subsequently confirmed by measuring velocity vs. substrate at varying ATP or GTP levels. Inhibitor residence times (1/koff) are used as a key parameter for prioritizing compounds and driving SAR, because a longer residence time often results from an allosteric mechanism, and can also correlate with improved cellular activity. The cGAS enzymatic assay is used with the jump dilution method to measure residence times (inhibitor dissociation rates), as described for kinases using the very similar ADP assay. Biophysical methods, including SPR and TSA, are used as orthologous methods for residence time measurements and kd estimates.

[3] = tested on: IRF3-driven Luc expression in THP-1 Dual cells; test: THP-1 Dual IRF3-Luc reporter assay; format: cell-based, human
Experimental: (§2) IFN induction in human monocyte cell lines: The human monocyte cell line THP-1 gives a robust cGAS/STING-dependent type I IFN response and has been used extensively for studies on the pathway. Typically, cells are stimulated by transfection with dsDNA and gene expression is assessed using an ELISA for IFNβ, a reporter gene assay, and/or cGAS/STING pathway markers such as STING phosphorylation. These assays were validated using the TBK1 inhibitor, BX-795, which acts downstream of cGAS/STING, as a probe; THP-1 Dual cells (Invivogen, San Diego) are used as the reporter cell line for routine compound testing (FIG. 5A). These assays were optimized, including equalizing responses with transfected DNA and cGAMP and comparing responses between undifferentiated cells and cells that have been differentiated to macrophages (which show little difference). […] Stimulation of THP-1 Dual cells with damage-associated molecular pattern molecules (DAMPs) that act through pattern recognition receptors other than cGAS provides another way to confirm the specificity of putative cGAS inhibitors.

[4] = tested on: NFκB-driven SEAP expression in THP-1 Dual cells; test: THP-1 Dual NFκB-SEAP reporter assay; format: cell-based, human; details: THP-1 Dual cells
Experimental: as §2

cGAS = cGAS (Homo sapiens, UniProt Q8N884); test: cGAS enzymatic assay (FP/TR-FRET detection of cGAMP); format: biochemical; parameters: The cGAS assay was used to screen 100,000 compounds with full-length human cGAS; 6xHis; made in house
In short: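 Homogeneous enzymatic assay with FP and TR-FRET read-outs, full-length enzyme at 30 nM. IC50 from dose-response under basal conditions (5 mM MgCl2, 100 μM ATP/GTP), also with 0.2 mM Mn added; values reported as letter bins from A (<100 nM) to E (>10 μM).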

Ksol (PBS, pH 7.4) = format: physicochemical; details: pH 7.4, aqueous buffer, kinetic from dmso stock

Chain of cGAS (Q8N884 whole entry): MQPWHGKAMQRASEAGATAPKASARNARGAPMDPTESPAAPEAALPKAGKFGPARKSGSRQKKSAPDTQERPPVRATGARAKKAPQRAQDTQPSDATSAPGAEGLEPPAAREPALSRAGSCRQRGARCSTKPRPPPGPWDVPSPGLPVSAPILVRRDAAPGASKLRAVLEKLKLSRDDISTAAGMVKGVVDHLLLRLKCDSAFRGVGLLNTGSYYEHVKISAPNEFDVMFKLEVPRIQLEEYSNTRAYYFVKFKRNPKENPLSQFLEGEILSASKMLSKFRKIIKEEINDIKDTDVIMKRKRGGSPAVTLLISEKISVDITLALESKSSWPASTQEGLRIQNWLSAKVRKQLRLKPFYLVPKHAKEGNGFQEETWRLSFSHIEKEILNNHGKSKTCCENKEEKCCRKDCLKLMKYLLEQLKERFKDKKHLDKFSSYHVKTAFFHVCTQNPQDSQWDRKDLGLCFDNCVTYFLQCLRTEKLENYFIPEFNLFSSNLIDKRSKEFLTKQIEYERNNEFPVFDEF
Chain of Mouse cGAS (Q8C6L5 whole entry): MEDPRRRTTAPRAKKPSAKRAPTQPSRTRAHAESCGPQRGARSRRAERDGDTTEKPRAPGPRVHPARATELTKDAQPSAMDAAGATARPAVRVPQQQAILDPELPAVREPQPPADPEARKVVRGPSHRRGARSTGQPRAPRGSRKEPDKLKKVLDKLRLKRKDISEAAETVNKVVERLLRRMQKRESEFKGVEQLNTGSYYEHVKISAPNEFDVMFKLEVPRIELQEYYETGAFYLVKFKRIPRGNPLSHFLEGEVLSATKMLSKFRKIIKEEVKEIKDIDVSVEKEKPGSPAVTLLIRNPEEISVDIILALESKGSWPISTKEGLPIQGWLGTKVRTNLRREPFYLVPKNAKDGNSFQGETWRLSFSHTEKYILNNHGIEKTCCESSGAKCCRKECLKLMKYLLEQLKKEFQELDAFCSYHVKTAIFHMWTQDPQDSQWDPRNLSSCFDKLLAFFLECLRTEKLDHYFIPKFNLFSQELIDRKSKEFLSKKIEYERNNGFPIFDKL

half-life [1]: > 2 h
efflux ratio (MDR1 (P-glycoprotein)): 0.4
Papp A→B (MDR1 (P-glycoprotein); A→B): 9.8 ×10⁻⁶ cm/s
MDR-1-mediated export [2]: no indication of MDR-1-mediated export
IC50 (Mouse cGAS): > 150000 nM
IC50 (cGAS; 5 mM Mg^2+, 0.2 mM Mn^2+, read-out: IC50 (5 mM Mg^2+, 0.2 mM Mn^2+)): 10800 ± 2400 nM
IC50 (cGAS; 5 mM Mg^2+, read-out: IC50 (5 mM Mg^2+)): 1260 ± 570 nM
IC50 (cGAS; cGAS (30 nM), with Mn^2+, read-out: Inhibition cGAS + Mn^2+): 1000 to 10000 nM
IC50 (cGAS; cGAS (30 nM), read-out: Inhibition cGAS): 500 to 1000 nM
MOA (cGAS; competition with ATP): ATP Competitive
solubility kinetic (Ksol (PBS, pH 7.4)): 520 µM (≈ 155 µg/mL)
Structure (SMILES): Cc1nc(N2CCC[C@H]2C(=O)O)c2oc3ccccc3c2n1 [Compound 15, (2-methylbenzofuro[3,2-d]pyrimidin-4-yl)-L-proline]
inhibition of IRF3 (Luc)-driven transcription ([3]; THP-1 Dual cells): 50-75%
inhibition in cGAMP-stimulated cells with cGAS present ([3]; cGAMP-stimulated THP-1 Dual cells): still caused inhibition, though to a lesser degree
cGAS-dependent cellular activity ([3]; human monocyte cell line THP-1): cGAS-dependent inhibition of type I IFN
inhibition of NFκB (SEAP)-driven transcription [4]: 50-75%
